Each structure is given as a SMILES string.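 Cells were grown in 96-well plates and exposed to each compound for 48 hours at five concentrations; endpoints were interpolated linearly between bracketing concentrations, or set to the highest concentration if not reached. Abbreviation: GI50, concentration required for 50% inhibition of growth. TGI: total growth inhibition.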

Some test systems named below: EKVX NSCLC; KM12 colon; NCI-H226 lung; RXF 393 renal; SK-OV-3 ovarian; SR leukemia; DU-145 prostate; MDA-MB-435; A498 renal; HS 578T breast.
Assay in all cases: NCI tumour cell line growth inhibition, 48 h

In the case of `Cc1cc(C)c(-c2noc(-c3ccc(Cl)cc3)c2C2=NCCN2)c(C)c1`, the TGI with EKVX NSCLC is 71.8 µM; in the assay with KM12 colon, 54 µM; in the assay with NCI-H226 lung it was 68.3 µM; in the assay on RXF 393 renal, 45.1 µM; in the assay on SK-OV-3 ovarian it was more than 100 µM; in the assay on SR leukemia it was 48 µM.
As for `Cn1c(=O)c2[nH]c(Nc3ccccc3)nc2n(C)c1=O`, the TGI in the assay on DU-145 prostate, in the assay on EKVX NSCLC, with KM12 colon, with MDA-MB-435, in the assay with RXF 393 renal and in the assay with SK-OV-3 ovarian was more than 10 µM in each case. The TGI in the assay with SR leukemia was more than 10 µM.
`COC(=O)C1=C(O)C(C(=O)OC)[C@@]2(O)[C@@H](C(=O)OC)C(c3ccc(OC(=O)C(Cc4ccccc4)NC(C)=O)cc3)C[C@@H]1[C@@H]2C(=O)OC` (stereo partly drawn): the GI50 is 24.5 µM in the assay with A498 renal; 95.7 µM in the assay on EKVX NSCLC; 20.4 µM in the assay with HS 578T breast; 15.3 µM in the assay with KM12 colon; 23.5 µM in the assay on MDA-MB-435; 25.5 µM in the assay with NCI-H226 lung. Also, the figures for the GI50 in the assay with RXF 393 renal, in the assay with SK-OV-3 ovarian and in the assay with SR leukemia were 25.4 µM, 37.5 µM and 3.35 µM, respectively. In addition, the TGI with A498 renal is 62.9 µM; with EKVX NSCLC, more than 100 µM; with HS 578T breast it was 75.3 µM; with KM12 colon, 41.3 µM; in the assay on MDA-MB-435, 50.2 µM; with NCI-H226 lung, 75.1 µM. In addition, the results for the TGI with RXF 393 renal, in the assay on SK-OV-3 ovarian and in the assay with SR leukemia were 51.2 µM, more than 100 µM and more than 100 µM, respectively.
With `NC(N)=Nc1nc2cc(N)ccc2o1`, the TGI with A498 renal, in the assay on EKVX NSCLC, in the assay with KM12 colon, with NCI-H226 lung, in the assay on SK-OV-3 ovarian and in the assay on SR leukemia was more than 100 µM throughout.
On to `COc1cc(OC)c(Oc2cccc(OC)c2OC)c(OC)c1`, for which the TGI with A498 renal, in the assay with EKVX NSCLC, in the assay on KM12 colon, with NCI-H226 lung, in the assay on SK-OV-3 ovarian and with SR leukemia was more than 100 µM throughout.
Take `CC(CC(C)[C@H]1CCC2[C@H]3C(CC[C@@]21C)[C@@]1(C)CCC(O)C[C@H]1C[C@@H]3O)C(=O)O` (stereo partly drawn): the TGI in the assay with A498 renal, with DU-145 prostate, in the assay with EKVX NSCLC, with KM12 colon, with MDA-MB-435 and with NCI-H226 lung was more than 100 µM in each case. Also, the TGI with RXF 393 renal and in the assay on SR leukemia was more than 100 µM in each case.
`Cn1c(=O)c(C2c3ccccc3Oc3c2c(=O)n(C)c2ccccc32)c(O)c2ccccc21` (stereo not drawn): the TGI with EKVX NSCLC, in the assay with KM12 colon, in the assay on NCI-H226 lung, in the assay on RXF 393 renal, in the assay with SK-OV-3 ovarian and in the assay with SR leukemia was more than 100 µM throughout.
Consider `O=C(Nc1ccc(Cl)cc1Cl)c1c/c(=N\O)c2ccc(O)cc2o1`, for which the TGI in the assay with A498 renal, with KM12 colon, in the assay with NCI-H226 lung, in the assay on RXF 393 renal, with SK-OV-3 ovarian and with SR leukemia was more than 100 µM throughout.
With `O=C(O)C(=O)/C=C\c1ccc(Cl)cc1`, the TGI in the assay on A498 renal, in the assay on EKVX NSCLC, with KM12 colon, in the assay on NCI-H226 lung, in the assay on RXF 393 renal and in the assay with SK-OV-3 ovarian was more than 100 µM in each case. This compound showed a TGI with SR leukemia of more than 100 µM.
As for `O=c1c2ccccc2oc2nccnc12`, the TGI in the assay with A498 renal, with EKVX NSCLC, in the assay with KM12 colon, with RXF 393 renal and with SK-OV-3 ovarian was more than 100 µM each time.
With `O=C(/C=C(\O)C(=O)O)/C=C(\O)c1ccc(Cl)cc1`, the TGI with A498 renal, in the assay on EKVX NSCLC, in the assay on KM12 colon, in the assay with NCI-H226 lung, in the assay with RXF 393 renal and with SK-OV-3 ovarian was more than 100 µM in each case. In the assay with SR leukemia, this compound returned a TGI of more than 100 µM.
As for `CCC(C)CNC1=C(NC(C)=O)C(=O)c2ccccc2C1=O` (stereo not drawn), the TGI in the assay on EKVX NSCLC, in the assay with KM12 colon, in the assay on NCI-H226 lung, in the assay with RXF 393 renal, in the assay on SK-OV-3 ovarian and in the assay on SR leukemia was more than 100 µM throughout.
With `CCOC(=O)C(=C=Cc1cccs1)C(=O)c1ccccc1`, the TGI with A498 renal amounted to 35.5 µM; with EKVX NSCLC, 31 µM; in the assay on KM12 colon, 24.7 µM; with NCI-H226 lung it was 32.7 µM; in the assay with SK-OV-3 ovarian it was 62.8 µM; with SR leukemia it was 49 µM.
`Cc1cc(C)cc(NC(=O)CCC(=O)C2CCC/C2=N\NC(=O)C(=O)NN)c1` (stereo not drawn): the TGI with A498 renal, in the assay on EKVX NSCLC, in the assay with KM12 colon, in the assay with NCI-H226 lung, in the assay with RXF 393 renal and in the assay with SK-OV-3 ovarian was more than 100 µM throughout.
Turning to `COc1ccc2c(c1)C(CCN)C(=O)N2` (stereo not drawn), the TGI in the assay with A498 renal, in the assay with EKVX NSCLC, in the assay with KM12 colon and with SK-OV-3 ovarian was more than 100 µM each time.
In the case of `c1cc(C2O[C@H]3CCCN3[C@@H]2c2ccncc2)ccn1` (stereo partly drawn), the TGI with A498 renal, in the assay with EKVX NSCLC, in the assay with KM12 colon, with NCI-H226 lung, in the assay with RXF 393 renal and in the assay on SK-OV-3 ovarian was more than 100 µM each time.
`COC(=O)c1nc(N)[nH]c(=O)c1-c1ccc(Cl)cc1`: the TGI in the assay with A498 renal, with EKVX NSCLC, in the assay with KM12 colon, with NCI-H226 lung, in the assay on RXF 393 renal and in the assay on SK-OV-3 ovarian was more than 100 µM in each case. The compound also had a TGI in the assay with SR leukemia of more than 86.6 µM.
Take `CC(=O)OC1CC[C@@]2(C)C(CC(OC3OC(CO)C(O)C(O)C3O)[C@]3(C)C2CCC24CC23CC[C@H]4C(C)CC(O)[C@@H](O)C(C)(C)O)C1(C)C` (stereo partly drawn): the TGI with A498 renal is 45.3 µM; with EKVX NSCLC it was 48.6 µM; in the assay with KM12 colon, 19.7 µM; in the assay on NCI-H226 lung it was 48.5 µM; with RXF 393 renal it was 30.1 µM; in the assay with SK-OV-3 ovarian, more than 50 µM.

For the origin of these results see PubChem BioAssay (NCI).
